Source: patent US11993604B2, “Substituted pyrazolo[4,3-H]quinazolines as protein kinase inhibitors” (SHENGKE PHARMACEUTICALS (JIANGSU) LTD., priority 2017, dated 2024)

Columns and labels:
CDK6/cyclin D1 = CDK6/cyclin D1 (Homo sapiens, UniProt Q00534); experiment: Biochemical kinase inhibition test, CDK6/cyclin D1 (similar method); conditions: for IC50: three-fold serial dilution from 10 μM, 10 μM ATP, read-out: CDK6/D1 (nM), enzyme inhibitory activity IC50; for selectivity for CDK6/cyclin D1 relative to CDK4/cyclin D1 (enzyme inhibitory activity): CDK6/cyclin D1 versus CDK4/cyclin D1
CDK6/cyclin D1, sequence (Q00534 whole entry, species assumed): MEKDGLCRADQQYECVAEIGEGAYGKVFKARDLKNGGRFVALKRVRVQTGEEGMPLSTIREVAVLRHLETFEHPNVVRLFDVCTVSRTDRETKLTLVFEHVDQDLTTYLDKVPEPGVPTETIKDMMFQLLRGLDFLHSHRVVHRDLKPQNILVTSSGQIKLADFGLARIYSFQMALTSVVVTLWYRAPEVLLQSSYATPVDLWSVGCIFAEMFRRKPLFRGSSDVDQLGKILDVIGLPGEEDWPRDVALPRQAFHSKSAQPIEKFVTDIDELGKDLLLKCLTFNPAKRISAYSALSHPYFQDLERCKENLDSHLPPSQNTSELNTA
CDK6/cyclin D1, sequence (P24385 whole entry partner, species assumed): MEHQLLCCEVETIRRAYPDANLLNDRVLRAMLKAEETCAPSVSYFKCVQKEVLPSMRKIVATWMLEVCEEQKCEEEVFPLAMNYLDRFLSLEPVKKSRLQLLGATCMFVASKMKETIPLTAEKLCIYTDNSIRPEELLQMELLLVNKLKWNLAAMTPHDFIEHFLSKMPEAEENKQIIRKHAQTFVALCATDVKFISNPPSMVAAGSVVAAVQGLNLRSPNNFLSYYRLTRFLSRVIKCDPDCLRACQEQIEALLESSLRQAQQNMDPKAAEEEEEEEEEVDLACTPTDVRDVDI
Protocol: Potency determination of biochemical kinase inhibition test. Kinase activity test and IC50 determination. Firstly, 10 ng of recombinant CDK4/Cyclin D1 (Life Technologies PV4204) was diluted in kinase buffer (20 mM Tris pH 7.5, 10 mM MgCl2, 0.01% NP-40, 2 mM DTT), and was incubated with inhibitors at the indicated concentration at room temperature for 30 minutes. The kinase reaction was initiated by adding […] (1.5 μM) of recombinant retinoblastoma protein, 5 μM ATP and 10μ Ci γ-32P-ATP. The reaction was incubated at 30° C. for 20 minutes, and was terminated by adding 2× Laemmli sample buffer, heated at 95° C. for three minutes, and the resulting solution was dissolved with 12% acrylamide SDS-PAGE and autoradiographed. A densitometer (Bio-Rad) was used to quantify the corresponding phosphorylated substrate protein bands. The resulting density values were plotted as a function of the log drug concentration using Prism 4 Graphpad software. IC50 values were determined by plotting a non-linear regression curve with a variable slope.
The inhibitory activity of the compounds disclosed herein against CDK6/cyclin D1 was tested by a similar method.
The compounds were tested in a three-fold serial dilution from the starting concentration of 10 μM, over 10-fold of IC50. The control compound, staurosporine, was tested in a four-fold serial dilution from the starting concentration of 20 μM, over 10-fold of IC50. These reactions took place in the presence of 10 μM ATP.

[1] = molecular target: T1, recombinant CDK4/Cyclin D1 (Homo sapiens, UniProt P11802); experiment: Biochemical kinase inhibition test, CDK4/Cyclin D1 (32P-ATP, retinoblastoma protein substrate); conditions: three-fold serial dilution from 10 μM; 10 μM ATP; read-out: CDK4/D1 (nM), enzyme inhibitory activity IC50
T1 construct: purchased Life Technologies PV4204
T1 sequence (P11802 whole entry): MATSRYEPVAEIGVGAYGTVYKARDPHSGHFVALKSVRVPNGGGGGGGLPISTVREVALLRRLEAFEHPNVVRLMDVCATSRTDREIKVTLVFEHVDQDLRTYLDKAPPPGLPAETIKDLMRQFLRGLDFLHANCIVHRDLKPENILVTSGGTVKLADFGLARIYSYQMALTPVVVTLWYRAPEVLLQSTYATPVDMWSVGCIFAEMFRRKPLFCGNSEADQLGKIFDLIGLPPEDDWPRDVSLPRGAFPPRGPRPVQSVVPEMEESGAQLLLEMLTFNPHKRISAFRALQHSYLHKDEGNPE
T1 sequence (P24385 whole entry partner): as the sequence (P24385 whole entry partner, species assumed) above

IC50 (CDK6/cyclin D1)	IC50 [1]	selectivity for CDK6/cyclin D1 relative to CDK4/cyclin D1 (enzyme inhibitory activity) (CDK6/cyclin D1)	Structure (SMILES)
< 1 nM	1 to 5 nM	–	CCN1CCN(c2ccc(Nc3ncc4cc(C(C)=O)c5cnn(C(C)C)c5c4n3)nc2)CC1 [Compound I-78]
< 1 nM	5 to 10 nM	–	CC(=O)c1cc2cnc(Nc3ccc(N4CCOCC4)cn3)nc2c2c1cnn2C(C)C [Compound I-79]
1 to 5 nM	5 to 10 nM	about 3 times	COc1cc(OC)cc(-c2cc3cnc(Nc4ccc(N5CCNCC5)cn4)nc3c3c2cnn3C(C)C)c1.Cl [Compound I-80]
1 to 5 nM	5 to 10 nM	about 3 times	CCN1CCN(c2ccc(Nc3ncc4cc(-c5cc(OC)cc(OC)c5)c5cnn(C(C)C)c5c4n3)nc2)CC1 [Compound I-81]
1 to 5 nM	5 to 10 nM	about 3 times	COc1cc(OC)cc(-c2cc3cnc(Nc4ccc(N5CCOCC5)cn4)nc3c3c2cnn3C(C)C)c1 [Compound I-82]
